# Where two headings read alike, the source gives them in different places.
# Tests used:
# [1] = phase I, ref [16], cited from earlier work
# Description: A phase I trial using subcutaneous administration of Ang-(1-7) for the treatment of patients with advanced solid tumors was previously reported. This study evaluated the maximum tolerated dose (MTD), toxicities, and pharmacokinetics of Ang-(1-7) when given subcutaneously once daily for five consecutive days on a 21-day cycle. This study identified 400 mcg/kg as the MTD for this schedule.
# [2] = Phase II trial: adverse events (CTCAE v3.0); type: in vivo, human
# Method: Ang-(1-7) was administered by subcutaneous injection once daily continuously. One cycle was defined as a 21-day period. Toxicities were assessed weekly during the first cycle and on the first day of each subsequent cycle. In the absence of unacceptable treatment-related toxicity, patients continued treatment until disease progression.
# Two dose cohorts were planned. In the first cohort, twenty patients were treated at a dose of 20 mg daily which is similar to the weight-based dose of 400 mcg/kg identified as the MTD in the phase I study. Unlike the phase I study, this study utilized continuous daily dosing rather than five days every three weeks. A planned interim safety evaluation was performed after the enrollment of 10 patients in the first cohort. […] Patients in this cohort would have received Ang-(1-7) at a dose of 10 mg daily if excessive toxicities had been observed in the 20 mg cohort. Safety events that would trigger dose deescalation included 3 strokes in any cohort or other evidence of excessive toxicity.
# Tumor measurements were performed using RECIST version 1.1 prior to initiation of treatment and then every two cycles until disease progression or unacceptable toxicity. Toxicities were graded using the Common Terminology Criteria for Adverse Events, version 3.0. […]
# [3] = Plasma Ang-(1-7) concentration, radioimmunoassay; type: in vivo; details: human, sc, median, RIA, P < 0.05 vs baseline
# Method: In the phase I trial, statistically significant changes in PlGF concentrations were identified 4 hours after the first Ang-(1-7) injection. To prospectively evaluate this biomarker, PlGF levels as well as VEGF, Ang-(1-7), Ang II, and Ang I were measured prior to the first dose, 4 hours after the first dose, and after 21 days of treatment in the phase II trial. Blood samples were immediately placed on ice and processed within 30 minutes of collection. For the angiotensin peptides, blood was taken in an EDTA containing tube with a cocktail of inhibitors to prevent in vitro generation or degradation of peptides, as previously described. Plasma samples were stored at −80°C. Concentrations of Ang-(1-7) (developed by laboratory), Ang II (Alpco, Windham, NH), and Ang I (Peninsula, San Carlos, CA) were measured by the Hypertension Core Facility of Wake Forest University using three established radioimmunoassay methods. Aliquots of plasma from the same time points were assayed by Aushon Biosystems (Billerica, MA) using Searchlight ELISA technology to quantify circulating vascular endothelial growth factor (VEGF) and placental growth factor (PlGF). […]
# The study was designed with 87% power to detect a response rate by RECIST criteria of 10% in the study population. […] Levels of biomarker expression over time were evaluated using nonparametric, Wilcoxon signed rank tests. […]
smiles,measurement,setting,value
"CC[C@H](C)[C@H](NC(=O)[C@H](Cc1ccc(O)cc1)NC(=O)[C@@H](NC(=O)[C@H](CCCNC(=N)N)NC(=O)[C@@H](N)CC(=O)O)C(C)C)C(=O)N[C@@H](Cc1c[nH]cn1)C(=O)N1CCC[C@H]1C(=O)O [Ang-(1-7), Angiotensin-(1-7)]",serious adverse event at least possibly related,[1]; 400 mcg/kg dose level,deep vein thrombosis
same,half-life at the MTD,"[1]; 400 mcg/kg s.c., considerable intra- and interpatient variability",36 min
same,serious adverse event at least possibly related,[1]; 700 mcg/kg dose level (first event named),stroke
same,serious adverse event at least possibly related,[1]; 700 mcg/kg dose level (second event named),cranial neuropathy
same,maximum tolerated dose (MTD),"[1]; s.c. once daily for five consecutive days on a 21-day cycle, advanced solid tumors",0.4 mg/kg
same,deaths on study or within 30 days of completing treatment,"[2]; 20 patients, all attributed to progressive cancer, felt unrelated to treatment",Three
same,pregnancy outcome,[2]; in vivo,delivered a healthy child
same,level at 4 h,"[3]; 4 hours after first dose, 20 mg s.c.",0.0611 ng/mL
same,level at 528 h,"[3]; day 22, 20 mg daily s.c.",0.0412 ng/mL
